Results taken from patent US20170119806A1, “[…] LACTONE DERIVATIVES AND METHODS OF MAKING AND USING THEREOF” (OHIO STATE INNOVATION FOUNDATION, priority 2014, published 2017).
“Also recorded” adds a separate entry of the source. Like-named read-outs stand apart in the source and are kept apart here.

Legend:
[1] = tested on: HT-29 human colon cancer cells; assay: Cytotoxicity against HT-29 cells
Protocol: (§1) The cytotoxicity of the test compounds was screened against HT-29 cells by a previously reported procedure (Ren Y et al. J. Nat. Prod 2011, 74, 1117-1125). Paclitaxel and etoposide were used as positive controls.
(§2) All arylnaphthalene lignans isolated from P. poilanet in the present study and their semi-synthetic analogues were evaluated for their cytotoxicity against HT-29 human colon cancer cells, using paclitaxel as the positive control (Table 6) (Ren Y et al. J. Nat. Prod 2011, 74, 1117-1125).

[2] = tested on: human colon cancer HT-29 cells implanted in NCr nu/nu mice; details: ip once daily for four days; for activity in in vivo hollow fiber assay (HT-29 cell growth): 5.0-20.0 mg/kg; for toxicity in mice of the hollow fiber assay: up to 20.0 mg/kg
Protocol: Mice were treated with the indicated doses of 1 once a day by intraperitoneal injection from day 3 to day 6 after implantation of the HT-29 cells facilitated in hollow fibers.
In Vivo Hollow Fiber Assay. […] The human colon cancer cell line HT-29 was used to evaluate 1 using procedures previously described (Mi Q et al. J. Nat. Prod 2009, 72,573-580; Pearce C J et al. Methods Mol. Biol, 2012, 944, 267-277). Eight- to nine-week-old immunodeficient NCr nu/nu mice were purchased from The Jackson Laboratory (Bar Harbor, Me., USA) and housed in microisolation cages at room temperature and a relative humidity of 50-60% under 12:12 h light-dark cycle. […] The mixture was diluted with distilled water to 13% DMSO and 25% CREMOPHOR™. The mice were injected ip once daily for four days with 1 or the positive control (paclitaxel). Each mouse was weighed daily during the study. […] The fibers were retrieved and viable cell mass was evaluated by a modified MTT (3-(4,5-dimethylthiazol-2-yl)-2,5-diphenyltetrazolium bromide) assay. The percentage of the net growth for the cells in each treatment group was calculated by subtracting the day 0 absorbance from the day 7 absorbance and dividing this difference by the net growth in the vehicle control (minus value between the day 7 and the day). Data were compared by the Student's t test, and a p value less than 0.05 was considered statistically significant.
Immunodeficient NCr nu/nu mice implanted with human colon cancer HT-29 cells placed in hollow fibers were treated once daily by 1 at doses of 5.0, 10.0, 15.0, or 20.0 mg/kg, or the vehicle control, or paclitaxel (5 mg/kg), by intraperitoneal (ip) injection tier four days. The relative FIT-29 cell growth values from all mice were calculated.

HT-29 cells = assay: Annexin V staining apoptosis assay; details: for HT-29 cell apoptosis at the late-stage / HT-29 cells undergoing early apoptosis: 72 h
Protocol: Lower left quadrant: the percentage of viable cells; lower right quadrant: the percentage of apoptotic cells; upper left quadrant: the percentage of necrotic cells; upper right quadrant: the percentage of the late-stage apoptotic or dead cells.
Annexin V Staining Method. […] The cells were washed with Annexin V binding buffer, centrifuged at 300×g for 10 min, and suspended (1×10^6) in 100 μL, of 1× Annexin V binding buffer. Then, 10 μL of Annexin fluorochrome was added to the suspension. After the suspension was mixed and incubated in a dark room at room temperature for 15 min, the cells were centrifuged, and the cell pellet was resuspended (1×10^6) in 100 μL of 1× Annexin V binding buffer. Next, 10 μL of Anti-Biotin-APC were added, and the cells incubated at 4-8° C. in a dark room for 10 min were centrifuged, The cell pellet was resuspended (1×10^6) in 500 μL of 1× Annexin V Binding Buffer. After 5 μg/mL of 7-AAD solution was added in the suspension, flow cytometry was conducted immediately.

[3] = tested on: CCD-112CoN normal human colon cells; assay: Cytotoxicity against CCD-112CoN cells; details: for IC50: read-out: IC50 values toward the CCD-112 CoN cells
Excerpt: Following a previous procedure (Still P C et al. J. Nat. Prod. 2013, 76, 243-249) and the method for screening cytotoxicity towards HT-29 cells mentioned above, the cytotoxicity of the samples was screened against CCD-112CoN normal human colon cells.

topo IIα = topo IIα (Homo sapiens, UniProt P11388); assay: Topoisomerase II assay (DNA cleavage/relaxation); assay type: biochemical; details: 100 μM test compound
Sequence of topo IIα (P11388 whole entry): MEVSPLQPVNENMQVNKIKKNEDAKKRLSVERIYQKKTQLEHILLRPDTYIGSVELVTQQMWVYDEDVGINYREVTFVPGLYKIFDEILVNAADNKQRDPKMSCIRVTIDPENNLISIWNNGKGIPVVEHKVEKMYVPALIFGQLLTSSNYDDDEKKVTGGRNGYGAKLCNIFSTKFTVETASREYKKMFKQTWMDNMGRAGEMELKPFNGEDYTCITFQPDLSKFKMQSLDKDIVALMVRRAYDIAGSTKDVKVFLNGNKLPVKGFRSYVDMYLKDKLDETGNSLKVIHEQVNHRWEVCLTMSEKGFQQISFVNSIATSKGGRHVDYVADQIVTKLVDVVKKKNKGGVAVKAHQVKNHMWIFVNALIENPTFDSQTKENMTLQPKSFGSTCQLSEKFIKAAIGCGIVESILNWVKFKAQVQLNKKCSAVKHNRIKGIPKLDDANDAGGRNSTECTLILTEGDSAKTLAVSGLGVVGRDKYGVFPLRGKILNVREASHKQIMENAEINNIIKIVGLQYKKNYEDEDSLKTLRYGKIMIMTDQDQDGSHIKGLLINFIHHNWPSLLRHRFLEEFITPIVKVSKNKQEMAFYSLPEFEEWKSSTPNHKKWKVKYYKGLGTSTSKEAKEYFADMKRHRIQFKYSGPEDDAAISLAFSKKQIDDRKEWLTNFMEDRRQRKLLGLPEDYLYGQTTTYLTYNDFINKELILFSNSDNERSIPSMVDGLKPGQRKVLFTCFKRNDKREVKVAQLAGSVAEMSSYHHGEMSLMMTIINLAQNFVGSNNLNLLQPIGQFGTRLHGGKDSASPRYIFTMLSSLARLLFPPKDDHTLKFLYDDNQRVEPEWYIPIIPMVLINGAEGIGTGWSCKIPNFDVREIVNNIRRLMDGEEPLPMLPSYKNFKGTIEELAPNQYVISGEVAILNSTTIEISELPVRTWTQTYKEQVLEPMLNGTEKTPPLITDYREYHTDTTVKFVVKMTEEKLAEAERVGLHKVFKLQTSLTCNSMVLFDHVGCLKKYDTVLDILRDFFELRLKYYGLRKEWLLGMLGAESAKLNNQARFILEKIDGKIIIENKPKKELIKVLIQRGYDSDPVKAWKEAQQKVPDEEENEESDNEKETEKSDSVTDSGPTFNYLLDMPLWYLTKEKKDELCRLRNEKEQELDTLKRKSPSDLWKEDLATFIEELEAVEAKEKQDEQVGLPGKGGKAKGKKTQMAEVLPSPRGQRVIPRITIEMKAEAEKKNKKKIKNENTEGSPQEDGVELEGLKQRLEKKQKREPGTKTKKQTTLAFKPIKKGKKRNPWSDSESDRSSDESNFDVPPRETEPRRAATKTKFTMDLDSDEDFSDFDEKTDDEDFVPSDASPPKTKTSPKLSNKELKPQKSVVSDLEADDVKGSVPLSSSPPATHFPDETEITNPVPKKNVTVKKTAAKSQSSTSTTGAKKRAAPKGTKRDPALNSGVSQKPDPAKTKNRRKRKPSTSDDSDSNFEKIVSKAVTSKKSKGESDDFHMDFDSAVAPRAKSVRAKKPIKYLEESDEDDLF
Excerpt: The formation of linear DNA was detected by separating the SDS-treated reaction products using ethidium bromide gel electrophoresis and quantified by accounting for the relationship between fluorescence and relative band intensity for open circular (OC), linear (LNR), supercoiled (SC), and relaxed (RLX) configurations of DNA.
Topoisomerase II Assay. […] The formation of linear DNA was detected by separating the SDS-treated reaction products using ethidium bromide gel electrophoresis by a modification of a previously described procedure (Hasinoff B B et al. Mol. Pharmacol. 2005, 67, 937-947). In this system, topo II-mediated catalytic conversion of supercoiled pBR322 DNA to the “relaxed” form of plasmic' DNA can also be observed. A 20 μL cleavage assay reaction mixture contained 250 ng topo IIα protein, 160 ng pBR322 plasmid DNA (NEB, Ipswich, Mass.), 1.0 mM ATP in assay buffer (10 mM Tris-HCl (pH 7.5), 50 mM KCl, 50 mM NaCl, 0.1 mM EDTA, 5 mM MgCl2, 2.5% glycerol), and 100 μM of test compounds or DMSO solvent, as indicated. Assay buffer (17 μL) and test compound/DMSO (1 μL) were mixed and allowed to sit at room temperature for 30 min after which 2 μL of topo IIα was added to initiate the reaction. Tubes were incubated at 37° C. for 15 min, and then quenched with 1% (v/v) SDS/10 mM disodium EDTA/200 mM NaCl. The mixture was treated subsequently with 0.77 mg/mL proteinase K (Sigma) at 55° C. for 60 min to digest the protein, and DNA bands were separated by electrophoresis (18 h at 2 V/cm) on an agarose gel (1.3% w/v) containing 0.7 μg/mL ethidium bromide in TAE buffer pH 8.0 (40 mM Tris base, 0.114% (v/v) glacial acetic acid, 2 mM EDTA). The DNA in the gel was imaged by its fluorescence on a Chemi-Doc XRS+ imager (Bio-Rad, Hercules, Calif.). Linear DNA was quantified by accounting for the relationship between fluorescence and relative band intensity for open circular (QC), linear (LNR), supercoiled (SC), and RLX (relaxed) configurations of DNA (Projan S J et al. Plasmid 1983, 9, 182-190), then calculating % of LNR from the total DNA content in each lane.

[4] = tested on: HT-29 human colon cancer cells
Protocol: as §1, §2

[5] = read-out: IC50 values toward the HT-29 cells, Table 6, triplicate, two independent experiments
[6] = Homo sapiens, HT-29, read-out: IC50 values toward the HT-29 cells

## COc1cc2c(O[C@@H]3OC[C@H](OC(C)=O)[C@H](OC(C)=O)[C@H]3O)c3c(c(-c4ccc5c(c4)OCO5)c2cc1OC)C(=O)OC3 [Compound 1, 7-O-[(3,4-di-O-acetyl)-α-L-arabinopyranosyl] diphyllin]
[1]; read-out: ED50, toxicity towards HT-29 cells, natural samples
  EC50: 0.17 µM
[1]; read-out: IC50, cytotoxicity toward HT-29 cells
  IC50: 0.17 µM
[2]
  activity in in vivo hollow fiber assay (HT-29 cell growth): showed activity; also recorded: dose dependent tendency; also recorded: active; also recorded: antitumor efficacy in vivo
  toxicity in mice of the hollow fiber assay: no signs of toxicity; also recorded: No gross toxicity; also recorded: without any gross toxicity
[2]; listed as Phyllanthusmin D
  activity in in vivo hollow fiber assay (HT-29 cell growth): active
  toxicity in mice of the hollow fiber assay: no signs of gross toxicity
HT-29 cells
  HT-29 cell apoptosis induction (in words): inducing tumor cell apoptosis; also recorded: induction of tumor cell apoptosis; also recorded: can induce HT-29 cell apoptosis
HT-29 cells; 1 μM
  HT-29 cell apoptosis at the late-stage: 27.3%
  HT-29 cells undergoing early apoptosis: 28.2%
HT-29 cells; 5 μM
  HT-29 cell apoptosis at the late-stage: 38.0%
  HT-29 cells undergoing early apoptosis: 30.3%
[3]
  cytotoxicity toward CCD-112CoN human normal colon cells (in words): non-cytotoxic
[3]; Table 6
  IC50: > 100 µM
Topo IIα
  topo IIα inhibition (in words): did not inhibit DNA topoisomerase IIα activity; also recorded: not topo Ha inhibitors; also recorded: no inhibitory activity against topo IIα; also recorded: not topo IIα inhibitors

## COc1cc2c(O[C@@H]3OC[C@H](O)[C@H](OC(C)=O)[C@H]3O)c3c(c(-c4ccc5c(c4)OCO5)c2cc1OC)C(=O)OC3 [Compound 2, 7-O-[(3-O-acetyl)-α-L-arabinopyranosyl] diphyllin]
[1]; [5]
  IC50: 1.8 µM

## COc1cc2c(O[C@@H]3OC[C@H](OC(C)=O)[C@H](O)[C@H]3O)c3c(c(-c4ccc5c(c4)OCO5)c2cc1OC)C(=O)OC3 [Compound 3, Phyllanthusmin B]
[4]
  cytotoxicity toward HT-29 cells (in words): cytotoxic
[1]; [5]
  IC50: 1.8 µM

## COc1cc2c(O[C@@H]3O[C@H](CO)[C@@H](O)[C@H](O)[C@H]3O)c3c(c(-c4ccc5c(c4)OCO5)c2cc1OC)C(=O)OC3 [Compound 5, Cleistanthin B]
[1]; [5]
  IC50: > 10 µM

## COc1cc2c(OC)c3c(c(-c4ccc5c(c4)OCO5)c2cc1O)C(=O)OC3 [Compound 6, Phyllanthusmin A]
[4]
  cytotoxicity toward HT-29 cells (in words): inactive
[1]; [5]
  IC50: > 10 µM

## COc1cc2c(O)c3c(c(-c4ccc5c(c4)OCO5)c2cc1OC)C(=O)OC3 [Compound 8, Diphyllin]
[1]; [6]
  IC50: 7.6 µM

## COc1cc([C@@H]2c3cc4c(cc3[C@@H](O[C@@H]3O[C@@H]5CO[C@@H](C)O[C@H]5[C@H](O)[C@H]3O)[C@H]3COC(=O)[C@H]23)OCO4)cc(OC)c1O [etoposide, reference compound]
[1]; [6]
  IC50: > 10 µM
HT-29 cells; 1 μM
  HT-29 cell apoptosis at the late-stage: 19.8%
  HT-29 cells undergoing early apoptosis: 12.9%
HT-29 cells; 5 μM
  HT-29 cell apoptosis at the late-stage: 25.3%
  HT-29 cells undergoing early apoptosis: 12.5%

## CC(=O)O[C@H]1C(=O)[C@@]2(C)[C@H]([C@H](OC(=O)c3ccccc3)[C@]3(O)C[C@H](OC(=O)[C@H](O)[C@@H](NC(=O)c4ccccc4)c4ccccc4)C(C)=C1C3(C)C)[C@]1(OC(C)=O)CO[C@@H]1C[C@@H]2O [paclitaxel, reference compound]
[1]; [6]
  IC50: 0.001 µM
[3]; Homo sapiens, CCD-112CoN
  IC50: 23 µM
